This note sets out measurements from patent US11433053B2, “LSD1 inhibitor and preparation method and application thereof” (CSPC ZHONGQI PHARMACEUTICAL TECHNOLOGY (SHIJIAZHUANG) CO., …, priority 2017, dated 2022).

For the test, the system named is H1417 cells. The test is described as follows: Cell proliferation inhibitory activity on H1417 cells (CellTiter-Glo, 10 days). The test is classed as cell-based, human. Conditions: Homo sapiens; for IC50: NCI-H1417, 240 h, H1417 cells, 10 days incubation; for Emax: NCI-H1417, H1417 cells, highest percentage inhibition of cell viability, read-out: Maximum inhibition percentage (%). The procedure, abridged: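 H1417 cells in RPMI 1640 with fetal bovine serum were treated with 10-point 3-fold compound dilutions for 10 days. Viability was read by CellTiter-Glo luminescence. IC50 came from a four-parameter fit of percent inhibition, and maximal inhibition was also categorized.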
(In ATP-based viability assays light output follows the ATP content of the culture.)

As to `N[C@H]1CC[C@H](c2nc(C3(CN[C@@H]4C[C@H]4c4ccccc4)CC3)no2)CC1` [Example 144], the IC50 lay within 100 to 500 nM and the Emax lay in the range of 90 to 100%.
In the same order, the values of `N[C@H]1CC[C@H](c2cc(C3(CN[C@@H]4C[C@H]4c4ccccc4)CC3)no2)CC1` [Example 241] are no more than 100 nM and 70 to 90%.
In the same order, the values of `N[C@H]1CC[C@@H](c2nc(C3(CN[C@@H]4C[C@H]4c4ccccc4)CC3)no2)CC1` [Example 145] are 100 to 500 nM and 70 to 90%.

As a reminder, the IC50 is the concentration needed to halve the response being measured. Lower therefore signals higher potency.
